For series [1], the system named is Anti-SRBC-Ab (IgM). Description: Anti-SRBC-Ab titer (IgM) in newborn rats after 9x treatment (hemagglutination). It counts as in vivo, Hannover Wistar rats (newborn). The following applies: 9x (3x3 weeks/ip), n = 12, control 6.3 (TP5), 5.2 (TP3). As for the experimental part: Rats (Hannover Wistar) were treated (i.p.) within 6-12 hours after birth. Treatments after birth in a single session or in another examination • on the 7th day after the first treatment; • another group was vaccinated 3 times a week after the first day of […]. treatment • in a subsequent group treated over three weeks (9× in total) (10-3,10-5,10-7//10-9, 10-11,10-12, 10-13 M/animal, i.p). • in the fourth test series, the animals were treated with TP fragments at 0, 1, 2, 4, or 5 days of age. The rats were unanimously immunized on the 14th day after birth (1% BVVT with 0.5 ml cell suspension, i.p.). Immune responses were measured after 7 days on day 21 of the experiment.
Rats (Hannover Wistar) were treated (i.p.) within 6-12 hours after birth. Treatments after birth in a single session or in another examination • on the 7th day after the first treatment; • another group was vaccinated 3 times a week after the first day of treatment. • in a subsequent group, the treatments took place over three weeks (9× in total) (10-3,10-5,10-7//10-9, 10-11,10-12,10-13 M/animal, i.p.). • in the fourth test series, the animals were treated with TP fragments at 0, 1, 2, 4, or 5 days of age. The rats were randomly immunized on the 14th day after birth (1% BVVT with 0.5 ml cell suspension, i.p.). Immune responses were measured after 7 days on day 21 of the experiment. 1.2. Determination of anti-BVVT Ab titers (from rat blood samples ex vivo) • with the haemagglutination method (Takátsy and Fürész, 1955) on 96-well plates (Flow). 50 ul of 0.9% NaCl solution was added to each well. The sera (50 μl) were diluted by half dilution in 12 steps, mixed with 25 pμl 2% BVVT cell suspension, and incubated (1 hour at 37 °C). The hemagglutination titers of the sera are determined. Values expressed in logarithmic values refer to total agglutination.

Series [2] deals with T cells. To be noted: Schlesinger et al. 1978, in words; cited from earlier work.
The subject of series [3] is transplanted skin graft rejection. Description: Rejection of the transplanted skin graft in adult thymus-removed (Tx) mice. It counts as in vivo, C57BL mice (adult thymectomized). The following applies: for rejection of the transplanted skin graft: n = 8/group. As to the method:
1.3./Determination of the number of plaque-forming cells (PFC) (using rat spleen cells) The chopped splenocytes were placed in a culture medium (Parker 199) and then shaken with a shaker for 1 minute. The cells were suctioned from the surface of the rapidly settling tissue debris. Red blood cells were removed osmotically. Cell suspensions were adjusted to 107/ml. The cell suspensions were mixed with a 15% BVVT cell suspension in a ratio of 2:1. PFC was determined with the mixture using a modified chamber technique according to Channingham et al., 1966). Before filling the chamber, 50 μl of fresh diluted guinea pig serum (1:20) was added. The chambers (2-2/slide) were incubated (370C 45′) after sealing with paraffin, the formed plaques were counted under a microscope (at 400× magnification) within 2 hours Marker tests related to the rejection reaction of an adult thymus-depleted mouse skin graft 1.4./Rejection of skin transplants in nude mice after treatment with TP fragments (Snell et al., Transplantation 5, 492, 1967).
(§1) After thymectomy, mice were treated with doses of 1 mg/kg, i.p. once a week for six weeks. Thy 1+, Lyt1+, and Lyt2+ in the spleen cells of mice at the age of 13 weeks cell proportions were determined based on what was previously described.
5. The Effect of TP3 was Tested on the Activity of the Immune System by Rejection of Skin Graft
• in adult thymectomized (Tx) C57BL mice.

Series [4] deals with Thy 1+, Lyt 1+, Lyt 2+ spleen cells. Description: Spleen cell subpopulations (Thy 1, Lyt 1, Lyt 2) in adult thymus-removed (Tx) mice. It counts as in vivo, C57BL mice (adult thymectomized). To be noted: male, 1.0 mg/kg/ip, n = 8/group. As for the experimental part:
• D.1/Direct cytotoxicity test/for the detection of Thy, Lyt antigens (Fathman 1979, in Immunol Meth I. Eds. Lefkovits, Pernis, Acad Press, New York, pp. 212-213.) was used. Subpopulation ratios were determined from bone marrow cells, thymus, and spleen cells isolated from the lymphatic organs of mice. The cell suspensions (1.087-1.088 g/cm3) were centrifuged ona density gradient (2000 rpm, 20 minutes), and the cells were washed 3× with RPMI1640 medium containing 0.3% BSA, then adjusted to 107/ml. Thyl, Lyt 1, Lyt2 monoclonal antibodies (McAb/Ando I. (ICRF Human Tumor Immunol. UCM Med Sch. London) were obtained. 25 μl McAb and 25 ul cell suspension were incubated (60′, 40C1), after centrifugation (1250 rpm 10′), the cells were resuspended with 40 μul of diluted (1:50) rabbit complement, then incubated (370C, 60′). The cell suspensions were stained with 1:5 dilution of Eosin Y (Jansen). the ratio of live to non-living cells was determined.
as §1

Series [5] in a line: High-dose / long-term tolerability in animals. It is filed as in vivo. The following applies: 12 months of use, in words.

Marks after values point to notes of the source that are not given here. Residues, ends and D or L forms follow the SMILES beside them.

Regarding `CC(C)[C@H](NC(=O)[C@H](CC(=O)O)NC(=O)[C@H](CCCCN)NC(=O)[C@@H](N)CCCN=C(N)N)C(=O)N[C@@H](Cc1ccc(O)cc1)C(=O)O` [TP5] (H-RKDVY-OH), the “Anti-SRBC-Ab titer (IgM)” value is given as 7.3 2 log in series [1] (10^-3 M/animal); 8.2* 2 log in series [1] (10^-4 M/animal); 8.6* 2 log in series [1] (10^-5 M/animal); 7.5 2 log in series [1] (10^-6 M/animal); 7.2 2 log in series [1] (10^-9 M/animal); 10.7* 2 log in series [1] (10^-11 M/animal). Further, the “Anti-SRBC-Ab titer (IgM)” value in series [1] (10^-13 M/animal) is 7.9* 2 log. Also, in series [2], the “differentiation of T cells” value is “induces the differentiation of T cells”. The “rejection of the transplanted skin graft” value is 23.1** in series [3] (female Tx C57BL mice, untreated control 14.5, Tx 54.6) and 41.3 in series [3] (male Tx C57BL mice, untreated control 27.8, Tx 59.8). Besides, in series [3] (male mice, rank in words), the “recovery of T cells / shortening of skin graft survival time” value is given as “TP5>TP3”. The same compound had a Lyt1/Lyt2 in series [4] (control 1.77, Tx 1.96) of 1.63. The “Lyt 2 spleen cells” value in series [4] (control 13.7, Tx 9.6) is listed as 14.2* %. Besides, the “Lyt 1 spleen cells” value in series [4] (control 24.3, Tx 18.8) is 23.2* %. For the same compound, in series [4] (control 30.1, Tx 8.1), the “Thy 1 spleen cells” value was determined as 21.2%. In series [5], the side effects result is recorded as “did not cause any signs of side effects”.

The values are drawn from patent US20260315564A1, “THE USE OF TP3 (THYMOPENTIN ANALOG) BY INCREASING THE ACTIVITY AND NUMBER OF T-CELLS INVOLVED IN THE DEFENSE MECHANISM OF THE IMMUNE SYSTEM OF MAMMALS, FOR THE PREVENTION OR TREATMENT OF DISEASES TO EXTEND THE AVERAGE LIFESPAN” (priority 2023, published 2026).
